Assays:
Type in all cases: cell-based
[1] = tested on: primary human fibroblasts from Sandhoff patients; assay: GM2 storage in gangliosidosis fibroblasts (Sandhoff), GSL analysis by HPLC; settings: 30 uM, 13 days of treatment
Procedure: (§1) Human gangliosidosis fibroblast cells are obtained e.g., from Coriell Institute for Medical Research (http://ccr.coriell.org). The primary cells are cultured in minimum essential medium (MEM) with 15% fetal bovine serum (FBS) as instructed by the supplier.
(§2) The fibroblast cells are cultured in 6 well plates at a density of 5.0E05/well in MEM, 15% FBS. The cells are treated with compounds at 30 uM on the next day of culture. The non-selective glycolipid inhibitors PDMP and DGNJ, which inhibit glucosylceramide synthase, are used as control. All the treatments are performed in triplicate. The medium is changed every 5 days with fresh compounds added. After 13 days of treatment with compounds, the cells are harvested for GSL analysis. The conditioned medium is removed, the monolayer is washed with PBS and detached with 5 mM EDTA in PBS. An aliquot of the cell suspension is taken for cell viability count using Viacount.
The cells are spun down and the cell pellets are resuspended in water for GSL extraction. The cells are homogenized using a homogenizer at 6500 rpm for 30 seconds twice. Gangliosides are extracted from homogenates by using chloroform:methanol:water (4:8:3) followed by partitioning. The ganglioside containing upper phase is taken and dried down in a SpeedVac.
Purified total GSLs are subjected to endo-glucoceramidase (EGCase II, Sigma) treatment to release free glycans. ˜10 ug protein equivalent GSL is digested with 1 mU EGCaseII in 15 ul incubation buffer containing 50 mM sodium acetate, pH 5.5 and 0.4% TX100. Digestion is performed at 37° C. overnight. Released free glycans are tagged with anthranilic Acid (2-AA, Sigma). A labeling mix is prepared freshly in 4% sodium acetate (NaAc.3H2O) and 2% boric acid/methanol(w/v) by adding 45 mg NaBH3CN first and then adding 30 mg 2AA in a 1 ml solution. 40 ul of this labeling mix is added directly into digestion mix. The labeling is carried out at 80° C. for 45˜60 min. Free labeling reagents are removed by passing the reaction mix through a Discovery DPA-6S (Sigma) column. The DPA-6S column (50 mg) is pre-equilibrated twice with 1 ml acetonitrile (ACN). The reaction mixture is cooled down, 1 ml of 97% ACN is added, and the sample is loaded onto the column. The column is washed with four times with 1 ml of 99% ACN and once with 0.5 ml of 97% ACN. 2AA-glycans are eluted in two time 600 ul water. The eluates are dried down in a SpeedVac and subjected to HPLC analysis.
(§3) Purified 2-AA-labeled oligosaccharides are analyzed by HPLC an method as described by Neville et al. (Anal. Biochem, 2004, 331:275-282). 2-AA-oligosaccharides are separated by NP-HPLC using a 5 μm 4.6×250 mm TSK gel-Amide 80 column (Tosoh) on a Waters Alliance 2690 separation module equipped with a Waters 2475 fluorescence detector set at Exλ360 nm and Emλ425 nm. Solvent A is 80% ACN and 20% 100 mM ammonium acetate (AmAc), pH 3.85. Solvent B is 60% Milli-Q water, 20% ACN and 20% 100 mM AmAc, pH 3.85. The gradient profile is listed below. Glucose unites are determined based on a 2-AA-labeled glucose ladder (Ludger, UK).

NCI-H82 cells = assay: Ganglioside profiling of compound-treated NCI-H82 cells (GSL extraction, 2AA labeling, NP-HPLC); settings: for cellular inhibition of specific ganglioside biosynthesis: NCI-H82 cells, 25, 12 and 6 uM, 96 hours, HPLC peaks; for preferential reduction effect on gangliosides GM3 and GD3: relative to other ganglioside species
Procedure: NCI-H82 cells were cultured in 6 well plates and treated with compounds at a concentration of 25, 12 and 6 uM in triplicates. PDMP (1-Phenyl-2-decanoylamino-3-morpholino-1-propanol, HCl, EMD #513100) at 25, 12, 6 uM and DGNJ (N-(n-Butyl) deoxygalactonojirimycin, EMD #203994) at 50 uM were used as controls. After 96 hours of compounds treatment the cells were harvested for ganglioside profiling. The suspension cells were centrifuged and the pellets washed once with PBS. Cells were resuspended in 1 ml of PBS, 1/100 of cells were taken to check the cell viability (Viacount)) and for glycosphingolipid (GSL) quantitation and normalization. 1/10 of cells were taken for CTB-FACS to check GM1 expression. The remaining cells were subjected to the ganglioside extraction procedure follow the protocol described by R. Schnaar (Methods in Enzymology, 230: 348-370, 1994).
Briefly, the cells were pelleted by centrifugation and resuspended in cold distilled-water. The cell suspension was homogenized with Polytron homogenizer. Glycolipids were extracted with chloroform:methanol:water at 4:8:3 ratio. Glycolipids were partitioned by adding 0.173 volume of water to extracted the supernatant. The upper […] phase (glycolipids) was dried in a vacuum centrifuge (SpeedVac).
Glycans were released from the glycolipids using the enzyme EGCase II (Sigma, Cat #E9030) as described by the manufacture. Released glycans were labeled with 2AA (2-Anthranilic acid, Sigma, Cat #A89804) following the procedures described by D. Neville (Analytical Biochemistry, 331 (2004) 275-282). Non-incorporated 2AA was removed by column chromatography (Discovery DPA-6S). Briefly, the extracted GSLs were digested with EGCase in a 10 ul reaction volume overnight. 40 ul of labeling mix (30 mg/ml 2-AA, 45 mg/ml […] in 4% NaAc and 2% boric acid in methano) were added. The reaction was carried at 80° C. for 45 min. 2AA-labeled glycans were purified by column chromatography (Discovery DPA-6S). The column was preequilibrated with 2×1 ml 97% acetonitrile (ACN) and the sample was loaded by adding 1 ml 97% ACN to the reaction mix. The column was washed 4× with 1 ml 97% ACN and the 2AA-labeled […] were eluted with 2×0.6 ml water. After drying down (SpeedVac), the sample were resuspended and analyzed by normal phase high performance liquid chromatography (NP-HPLC).
Purified 2AA-GSL glycans were separated on NP-HPLC using a 4.6×250 mm TSK Gel-Amide-80 column (Tosoh Bioscience). The chromatography system consisted of a Waters Alliance 2690/5 separation module and an in-line Waters 2475 fluorescence detector set at Exλ360 nm and Emλ425 nm. All chromatography was performed at 30° C. Solvent A was 20% 100 mM ammonium acetate pH3.85, 80% Acetonitrile, solvent B was 20% 100 mM ammonium acetate pH3.85, 20% ACN and 60% Milli-Q water. The gradient was run from 86% A to 54.7% A in 55 min at flow rate 0.8˜1.2 ml/min (Analytical Biochemistry, 331 (2004) 275-282). Chromatography data was processed using Waters Empower software. Glucose units were determined based on a 2AA-labeled glucose oligomer ladder (Ludger). All 2AA-GSL standards were prepared in house and labeled as glucose units.
FIGS. 18-25 illustrate the dose dependent effects on individual gangliosides (individual HPLC peaks) of various compounds as determined according to the methods of Example 5, but with additional and slightly altered concentration levels used for test compound dosing.

[2] = tested on: primary human fibroblasts from Tay-Sachs patients; assay: GM2 storage in gangliosidosis fibroblasts (Tay-Sachs), GSL analysis by HPLC; settings: 30 uM, 13 days of treatment
Procedure: as §1
as §2, with “Viacount. […]” for “Viacount.”
as §3, with “Solvent A is 80% ACN and 20% 100 mM ammonium acetate (AmAc), pH 3.85. Solvent B is 60% Milli-Q water, 20% ACN and 20% 100 mM AmAc, pH 3.85. The gradient profile is listed below.” left out

[3] = NCI-H82 cells, HPLC peak area as % of untreated
[4] = NCI-H82 cells, HPLC peak areas as % of untreated

CCCCN1C[C@H](O)[C@@H](O)[C@@H](O)[C@H]1CO [DGNJ, N-(n-Butyl) deoxygalactonojirimycin, reference compound]
reduction of GM2 storage in primary human fibroblasts from Sandhoff patients [1]: reduction

CCCCCCCCCC(=O)NC(CN1CCOCC1)C(O)c1ccccc1 (stereo not drawn) [PDMP, 1-Phenyl-2-decanoylamino-3-morpholino-1-propanol, reference compound]
cellular inhibition of specific ganglioside biosynthesis (NCI-H82 cells): inhibition | reduction of GM2 storage in primary human fibroblasts from Sandhoff patients [1]: reduction

CN(C)c1ccc(-c2nc3c(C(C)(C)C)cc(C(C)(C)C)c(O)c3o2)cc1 [compound 2, 4,6-di-tert-butyl-2-(4-(dimethylamino)phenyl)benzo[d]oxazol-7-ol]
cellular inhibition of specific ganglioside biosynthesis (NCI-H82 cells): inhibition | dose dependent reduction effect on ganglioside GD1b (NCI-H82 cells; [3]): dose dependent reduction

CSc1ccc(-c2ncnn2-c2sc3c(c2C#N)CCCCC3)cc1 [compound 3, 2-(5-(4-(methylthio)phenyl)-1H-1,2,4-triazol-1-yl)-5,6,7,8-tetrahydro-4H-cyclohepta[b]thiophene-3-carbonitrile]
preferential reduction effect on gangliosides GM3 and GD3 (NCI-H82 cells; NCI-H82 cells): preferential reduction | reduction of GM2 storage in primary human fibroblasts from Sandhoff patients [1]: reduction

N#Cc1c(-n2ncnc2-c2ccc(F)cc2)sc2c1CCCCC2 [compound 4, 2-(5-(4-fluorophenyl)-1H-1,2,4-triazol-1-yl)-5,6,7,8-tetrahydro-4H-cyclohepta[b]thiophene-3-carbonitrile]
dose dependent reduction effect on ganglioside GD3 (NCI-H82 cells; [3]): dose dependent reduction | reduction in B series gangliosides relative to A series gangliosides (NCI-H82 cells; [4]): reduction

CC(C)(C)c1cc(C(C)(C)C)c2nc(-c3cc(Br)ccc3O)oc2c1O [compound 5, 2-(5-bromo-2-hydroxyphenyl)-4,6-di-tert-butylbenzo[d]oxazol-7-ol]
dose dependent reduction effect on ganglioside GD2 (NCI-H82 cells; [3]): dose dependent reduction | preferential reduction effect on 2 series gangliosides GM2 and GD2 relative to the 3 series gangliosides GM3 and GD3 (NCI-H82 cells; [4]): preferential reduction | reduction of GM2 storage in primary human fibroblasts from Sandhoff patients [1]: reduction

CC1=C(C(=O)Nc2ccccc2)C(c2ccccc2)C(C#N)=C(SCC(=O)NCc2ccccc2)N1 (stereo not drawn) [compound 7, 6-(2-(benzylamino)-2-oxoethylthio)-5-cyano-2-methyl-N,4-diphenyl-1,4-dihydropyridine-3-carboxamide]
reduction of GM2 storage in primary human fibroblasts from Sandhoff patients [1]: reduction

CC(C)CNc1oc(-c2cccs2)nc1C#N [compound 8, 5-(isobutylamino)-2-(thiophen-2-yl)oxazole-4-carbonitrile]
preferential reduction effect on gangliosides GM3 and GD3 (NCI-H82 cells; NCI-H82 cells): preferential reduction | reduction of GM2 storage in primary human fibroblasts from Sandhoff patients [1]: reduction

COc1cc(/C=C/c2ccc3cccc(OCc4ccccc4)c3n2)cc([N+](=O)[O-])c1OC(C)=O [compound 15, (E)-4-(2-(8-(benzyloxy)quinolin-2-yl)vinyl)-2-methoxy-6-nitrophenyl acetate]
cellular inhibition of specific ganglioside biosynthesis (NCI-H82 cells): inhibition

Cc1ccc(C=NN2CCN(c3ccc(Cl)cc3)CC2)o1 [compound 17, 4-(4-chlorophenyl)-N-((5-methylfuran-2-yl)methylene)piperazin-1-amine]
cellular inhibition of specific ganglioside biosynthesis (NCI-H82 cells): inhibition | dose dependent reduction effect on ganglioside GM3 (NCI-H82 cells; [3]): dose dependent reduction | reduction of GM2 storage in primary human fibroblasts from Sandhoff patients [1]: reduction

CC(C)(C)C1=CC(=Nc2ccc(Br)cc2)C=C(C(C)(C)C)C1=O [compound 18, 4-(4-bromophenylimino)-2,6-di-tert-butylcyclohexa-2,5-dienone]
dose dependent reduction effect on ganglioside GM2 (NCI-H82 cells; [3]): dose dependent reduction

COc1ccc(/C(C)=N/Nc2nc3ccccc3nc2C)cc1OC [compound 19, (E)-2-(2-(1-(3,4-dimethoxyphenyl)ethylidene)hydrazinyl)-3-methylquinoxaline]
dose dependent reduction effect on ganglioside GM1 (NCI-H82 cells; [3]): dose dependent reduction | reduction of GM2 storage in primary human fibroblasts from Sandhoff patients [1]: reduction

COc1cccc(-c2nc3c(C(C)(C)C)cc(C(C)(C)C)c(O)c3o2)c1OC [compound 20, 4,6-di-tert-butyl-2-(2,3-dimethoxyphenyl)benzo[d]oxazol-7-ol]
reduction of GM2 storage in primary human fibroblasts from Sandhoff patients [1]: reduction

Cc1cc(OCC(=O)Nc2ccc(N(C)C)cc2)cc(C)c1Cl [compound 21, 2-(4-chloro-3,5-dimethylphenoxy)-N-(4-(dimethylamino)phenyl)acetamide]
reduction of GM2 storage in primary human fibroblasts from Tay-Sachs patients [2]: reduction

Reference: US20100248365A1, “GANGLIOSIDE BIOSYNTHESIS MODULATORS” (ZACHARON PHARMACEUTICALS, INC., priority 2009, published 2010)
